Experiments:
Assay type in all cases: in vivo
[1] = test system: barnyardgrass (Echinochloa crus-galli); assay: Test G Pre-Emergence Protocol; conditions: Echinochloa crus-galli, pre-emergence, 312 h, evaluated after 13 days; for pest or weed control at 15.625 g/ha: 15.625 g ai/ha, read-out: Barnyard grass damage rating (100=total damage to plant; 0=no damage to plant); for pest or weed control at 62.5 g/ha: 62.5 g ai/ha, 100=total damage to plant, 0=no damage to plant, read-out: plant damage rating, Barnyardgrass; for pest or weed control at 250 g/ha: 250 g ai/ha, read-out: Barnyardgrass damage rating (100=total damage to plant; 0=no damage to plant)
Summary of the method: (§1)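 Seeds were sown in standard soil and kept one day in a glasshouse (24/16° C day/night, 14 h light, 65% humidity), then sprayed with compound in acetone/water (50:50) containing 0.5% Tween 20 at 15.625, 62.5 or 250 g/ha. Damage was scored after 13 days (0 = none, 100 = total).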

corn (Zea mays) [2] = assay: Test G Pre-Emergence Protocol; conditions: Zea mays, pre-emergence, 312 h, evaluated after 13 days; for plant injury at 15.625 g/ha: 15.625 g ai/ha; for plant injury at 15.625 g/ha / plant injury at 250 g/ha: read-out: Corn damage rating (100=total damage to plant; 0=no damage to plant); for plant injury at 62.5 g/ha: 62.5 g ai/ha, 100=total damage to plant, 0=no damage to plant, read-out: plant damage rating, Corn; for plant injury at 250 g/ha: 250 g ai/ha
Summary of the method: as §1

[3] = test system: giant foxtail (Setaria faberi); assay: Test G Pre-Emergence Protocol; conditions: Setaria faberi, pre-emergence, 312 h, evaluated after 13 days; for pest or weed control at 15.625 g/ha: 15.625 g ai/ha; for pest or weed control at 15.625 g/ha / pest or weed control at 250 g/ha: read-out: Foxtail, Giant damage rating (100=total damage to plant; 0=no damage to plant); for pest or weed control at 62.5 g/ha: 62.5 g ai/ha, 100=total damage to plant, 0=no damage to plant, read-out: plant damage rating, Foxtail, Giant; for pest or weed control at 250 g/ha: 250 g ai/ha
Summary of the method: as §1

[4] = test system: ivy-leaved morning glory (Ipomoea hederacea); assay: Test G Pre-Emergence Protocol; conditions: Ipomoea, pre-emergence, 312 h, evaluated after 13 days; for pest or weed control at 15.625 g/ha: 15.625 g ai/ha, read-out: Morning-glory, Ivy-leaved damage rating (100=total damage to plant; 0=no damage to plant); for pest or weed control at 62.5 g/ha: 62.5 g ai/ha, 100=total damage to plant, 0=no damage to plant, read-out: plant damage rating, Morningglory, Ivy-leaved; for pest or weed control at 250 g/ha: 250 g ai/ha, read-out: Morningglory, Ivy-leaved damage rating (100=total damage to plant; 0=no damage to plant)
Summary of the method: as §1

[5] = test system: redroot pigweed (Amaranthus retroflexus); assay: Test G Pre-Emergence Protocol; conditions: Amaranthus retroflexus, pre-emergence, 312 h, evaluated after 13 days; for pest or weed control at 15.625 g/ha: 15.625 g ai/ha; for pest or weed control at 15.625 g/ha / pest or weed control at 250 g/ha: read-out: Pigweed, Redroot damage rating (100=total damage to plant; 0=no damage to plant); for pest or weed control at 62.5 g/ha: 62.5 g ai/ha, 100=total damage to plant, 0=no damage to plant, read-out: plant damage rating, Pigweed, Redroot; for pest or weed control at 250 g/ha: 250 g ai/ha
Summary of the method: as §1

[6] = test system: velvetleaf (Abutilon theophrasti); assay: Test G Pre-Emergence Protocol; conditions: Abutilon theophrasti, pre-emergence, 312 h, evaluated after 13 days; for pest or weed control at 15.625 g/ha: 15.625 g ai/ha; for pest or weed control at 15.625 g/ha / pest or weed control at 250 g/ha: read-out: Velvetleaf damage rating (100=total damage to plant; 0=no damage to plant); for pest or weed control at 62.5 g/ha: 62.5 g ai/ha, 100=total damage to plant, 0=no damage to plant, read-out: plant damage rating, Velvetleaf; for pest or weed control at 250 g/ha: 250 g ai/ha
Summary of the method: as §1

[7] = test system: barnyardgrass (Echinochloa crus-galli); assay: Test G Post-Emergence Protocol; conditions: Echinochloa crus-galli, post-emergence, 312 h; for pest or weed control at 15.625 g/ha: 15.625 g ai/ha, evaluated after 13 days (100=total damage to plant; 0=no damage to plant), read-out: Barnyardgrass damage rating; for pest or weed control at 62.5 g/ha: 62.5 g ai/ha, read-out: Barnyardgrass damage rating (100=total damage to plant; 0=no damage to plant); for pest or weed control at 62.5 g/ha / pest or weed control at 250 g/ha: evaluated after 13 days; for pest or weed control at 250 g/ha: 250 g ai/ha, read-out: damage to plant, Barnyardgrass (100=total damage to plant; 0=no damage to plant)
Summary of the method: (§2)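 Damage was rated 13 days after treatment from 0 (none) to 100 (plant killed). Compound was applied as a spray at 15.625, 62.5 or 250 g/ha in 50:50 acetone/water containing 0.5% Tween 20, onto 8-day-old potted plants kept in a glasshouse (24/16 °C, 14 h light, 65% humidity).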

corn (Zea mays) [8] = assay: Test G Post-Emergence Protocol; conditions: Zea mays, post-emergence, 312 h; for plant injury at 15.625 g/ha: 15.625 g ai/ha, evaluated after 13 days (100=total damage to plant; 0=no damage to plant), read-out: Corn damage rating; for plant injury at 62.5 g/ha: 62.5 g ai/ha, read-out: Corn damage rating (100=total damage to plant; 0=no damage to plant); for plant injury at 62.5 g/ha / plant injury at 250 g/ha: evaluated after 13 days; for plant injury at 250 g/ha: 250 g ai/ha, read-out: damage to plant, Corn (100=total damage to plant; 0=no damage to plant)
Summary of the method: as §2

[9] = test system: giant foxtail (Setaria faberi); assay: Test G Post-Emergence Protocol; conditions: Setaria faberi, post-emergence, 312 h; for pest or weed control at 15.625 g/ha: 15.625 g ai/ha, evaluated after 13 days (100=total damage to plant; 0=no damage to plant), read-out: Foxtail, Giant damage rating; for pest or weed control at 62.5 g/ha: 62.5 g ai/ha, read-out: Foxtail, Giant damage rating (100=total damage to plant; 0=no damage to plant); for pest or weed control at 62.5 g/ha / pest or weed control at 250 g/ha: evaluated after 13 days; for pest or weed control at 250 g/ha: 250 g ai/ha, read-out: damage to plant, Foxtail, Giant (100=total damage to plant; 0=no damage to plant)
Summary of the method: as §2

[10] = test system: ivy-leaved morning glory (Ipomoea hederacea); assay: Test G Post-Emergence Protocol; conditions: Ipomoea, post-emergence, 312 h; for pest or weed control at 15.625 g/ha: 15.625 g ai/ha, evaluated after 13 days (100=total damage to plant; 0=no damage to plant), read-out: Morningglory, Ivy-leaved damage rating; for pest or weed control at 62.5 g/ha: 62.5 g ai/ha, read-out: Morningglory, Ivy-leaved damage rating (100=total damage to plant; 0=no damage to plant); for pest or weed control at 62.5 g/ha / pest or weed control at 250 g/ha: evaluated after 13 days; for pest or weed control at 250 g/ha: 250 g ai/ha, read-out: damage to plant, Morningglory, Ivy-leaved (100=total damage to plant; 0=no damage to plant)
Summary of the method: as §2

[11] = test system: redroot pigweed (Amaranthus retroflexus); assay: Test G Post-Emergence Protocol; conditions: Amaranthus retroflexus, post-emergence, 312 h; for pest or weed control at 15.625 g/ha: 15.625 g ai/ha, evaluated after 13 days (100=total damage to plant; 0=no damage to plant), read-out: Pigweed, Redroot damage rating; for pest or weed control at 62.5 g/ha: 62.5 g ai/ha, read-out: Pigweed, Redroot damage rating (100=total damage to plant; 0=no damage to plant); for pest or weed control at 62.5 g/ha / pest or weed control at 250 g/ha: evaluated after 13 days; for pest or weed control at 250 g/ha: 250 g ai/ha, read-out: damage to plant, Pigweed, Redroot (100=total damage to plant; 0=no damage to plant)
Summary of the method: as §2

[12] = test system: velvetleaf (Abutilon theophrasti); assay: Test G Post-Emergence Protocol; conditions: Abutilon theophrasti, post-emergence, 312 h; for pest or weed control at 15.625 g/ha: 15.625 g ai/ha, evaluated after 13 days (100=total damage to plant; 0=no damage to plant), read-out: Velvetleaf damage rating; for pest or weed control at 62.5 g/ha: 62.5 g ai/ha, read-out: Velvetleaf damage rating (100=total damage to plant; 0=no damage to plant); for pest or weed control at 62.5 g/ha / pest or weed control at 250 g/ha: evaluated after 13 days; for pest or weed control at 250 g/ha: 250 g ai/ha, read-out: damage to plant, Velvetleaf (100=total damage to plant; 0=no damage to plant)
Summary of the method: as §2

CSc1nnc(NC(=O)[C@@H]2C(=O)N(C)C[C@H]2c2ccc(C(F)(F)F)cc2)[nH]1 (racemic) [Compound 1603]
0%: pest or weed control at 15.625 g/ha [1] | pest or weed control at 62.5 g/ha [1] | pest or weed control at 250 g/ha [1] | plant injury at 15.625 g/ha (corn (Zea mays) [2]) | plant injury at 62.5 g/ha (corn (Zea mays) [2]) | plant injury at 250 g/ha (corn (Zea mays) [2]) | pest or weed control at 15.625 g/ha [3] | pest or weed control at 62.5 g/ha [3] | pest or weed control at 250 g/ha [3] | pest or weed control at 15.625 g/ha [4] | pest or weed control at 62.5 g/ha [4] | pest or weed control at 250 g/ha [4] | pest or weed control at 15.625 g/ha [5] | pest or weed control at 62.5 g/ha [5] | pest or weed control at 250 g/ha [5] | pest or weed control at 15.625 g/ha [6] | pest or weed control at 62.5 g/ha [6] | pest or weed control at 250 g/ha [6] | pest or weed control at 15.625 g/ha [7] | pest or weed control at 62.5 g/ha [7] | pest or weed control at 250 g/ha [7] | plant injury at 15.625 g/ha (corn (Zea mays) [8]) | plant injury at 62.5 g/ha (corn (Zea mays) [8]) | plant injury at 250 g/ha (corn (Zea mays) [8]) | pest or weed control at 15.625 g/ha [9] | pest or weed control at 62.5 g/ha [9] | pest or weed control at 250 g/ha [9] | pest or weed control at 15.625 g/ha [10] | pest or weed control at 62.5 g/ha [10] | pest or weed control at 250 g/ha [10] | pest or weed control at 15.625 g/ha [11] | pest or weed control at 62.5 g/ha [11] | pest or weed control at 250 g/ha [11] | pest or weed control at 15.625 g/ha [12] | pest or weed control at 62.5 g/ha [12] | pest or weed control at 250 g/ha [12]

CN1C[C@@H](c2ccc(C(F)(F)F)cc2)[C@H](C(=O)Nc2nnc(C(F)(F)F)o2)C1=O (racemic) [Compound 1604]
0%: pest or weed control at 15.625 g/ha [1] | pest or weed control at 62.5 g/ha [1] | pest or weed control at 250 g/ha [1] | plant injury at 15.625 g/ha (corn (Zea mays) [2]) | plant injury at 62.5 g/ha (corn (Zea mays) [2]) | plant injury at 250 g/ha (corn (Zea mays) [2]) | pest or weed control at 15.625 g/ha [3] | pest or weed control at 62.5 g/ha [3] | pest or weed control at 250 g/ha [3] | pest or weed control at 15.625 g/ha [4] | pest or weed control at 62.5 g/ha [4] | pest or weed control at 250 g/ha [4] | pest or weed control at 15.625 g/ha [5] | pest or weed control at 62.5 g/ha [5] | pest or weed control at 250 g/ha [5] | pest or weed control at 15.625 g/ha [6] | pest or weed control at 62.5 g/ha [6] | pest or weed control at 250 g/ha [6] | pest or weed control at 15.625 g/ha [7] | pest or weed control at 62.5 g/ha [7] | pest or weed control at 250 g/ha [7] | plant injury at 15.625 g/ha (corn (Zea mays) [8]) | plant injury at 62.5 g/ha (corn (Zea mays) [8]) | plant injury at 250 g/ha (corn (Zea mays) [8]) | pest or weed control at 15.625 g/ha [9] | pest or weed control at 62.5 g/ha [9] | pest or weed control at 250 g/ha [9] | pest or weed control at 15.625 g/ha [10] | pest or weed control at 62.5 g/ha [10] | pest or weed control at 250 g/ha [10] | pest or weed control at 15.625 g/ha [11] | pest or weed control at 62.5 g/ha [11] | pest or weed control at 250 g/ha [11] | pest or weed control at 15.625 g/ha [12] | pest or weed control at 62.5 g/ha [12] | pest or weed control at 250 g/ha [12]
